From US9512440B2, “Modulation of receptor-like kinases for promotion of plant growth” (IOWA STATE UNIVERSITY RESEARCH FOUNDATION, INC., priority 2009, dated 2016)

Key:
HERK1, THE1 and FER = test: quantitative RT-PCR of HERK1, THE1 and FER expression after hormone treatment; type: in vivo, Arabidopsis thaliana
Description: (1A) The expression of HERK1, THE1 and FER is induced by BL treatment in 10-day-old seedlings and 4-week-old adult plants. Triplicate biological samples were used to prepare RNA for quantitative RT PCR. The relative expression levels compared to UBQ5 gene were used to determine the BL-induction levels of each gene. The averages and standard deviations from three biological repeats are shown. […] Ten-day-old seedlings were used to prepare RNA for qRT-PCR as described in (1A). (1C-E) HERK1 cellular localization: A HERK1-GFP (1C) or BES1-D-GFP (1D) construct was introduced into protoplasts or transgenic plants (1E). HERK1 is mostly localized at the plasma membrane (1C and 1E), while BES1-D is primarily in the nucleus (1D). […] Recombinant proteins fused with MBP representing the wild-type HERK1 kinase domain (WT), and a mutant version with disrupted kinase activity (mutant), were used in kinase assay. […] The bars in 1G/1H and 1I represent 2.5 and 10 mm, respectively.
(8A) Regulation of HERK1, THE1 and FER as well as other CrRLK family members by BL. The data are derived from microarray experiments with light-growing seedlings treated with 10 nM BL for 3 hr, which is published in a public website (http://bbc.botany.utoronto.ca/efp/cgi-bin/efpWeb.cgi). […] The averages and standard deviations for 2 biological replicates are shown. (8C) the herk1 the1 double mutant has a normal GA response in a hypocotyl elongation assay. […]
For reverse transcription-polymerase chain reaction (RT-PCR), 2 μg total RNA was reverse-transcribed to cDNA by SuperScript II Reverse Transcriptase (Invitrogen). For real-time quantitative RT-PCR, the primers were designed so that the products are between 200-300 bps. The SYBR Green PCR Master mix (Applied Biosystems) was used and the PCR reactions were run on the Mx4000® multiplex quantitative PCR system (Stratagene). Two or three biological replicates were each analyzed with 2-3 RT-PCR reactions. For semi-quantitative RT-PCR, the same amount of cDNA was used for each PCR reaction. […]

[1] = test system: wild-type 24-day-old adult plants; test: Affymetrix microarray gene expression, wild-type adult plants with BL; type: in vivo, Arabidopsis thaliana
Protocol: (§1) Microarray experiments were performed with 24-day-old adult plants. The whole plants were sprayed with either water or […] and incubate for 2.5 hours. The plants were pooled into three groups as triplicates (8 plants per group). Total RNA was prepared with RNeasy Plant Mini Kit (QIAGEN) and used to make probes for microarray experiments with Affymetrix Arabidopsis Genomic arrays. The probe labeling, hybridization, and scanning were performed according to manufacture's instructions. Microarray data was normalized by the MAS 5.0 method implemented in the R package affy and the linear model was applied to two sample comparison (samples with and without BL treatment or WT compared to mutant) using the limma package (39, 40). Genes with an adjusted p-value <=0.01 were considered to be differentially expressed. The BR-induced genes, HERK1/THE regulated genes were used for clustering analysis with the GENESPRING program (Silicon Genetics) using Pearson Correlation.

[2] = test system: herk1 the1 double mutant 24-day-old adult plants; test: Affymetrix microarray gene expression, herk1 the1 double mutant adult plants with BL; type: in vivo, Arabidopsis thaliana
Protocol: as §1

CrRLK1L family RLKs = test: microarray of CrRLK1L family expression, 2-week-old seedlings with or without BL; type: in vivo, Arabidopsis thaliana; conditions: wild-type (En-2), BL 1 uM, 3 hr
Protocol: (9A) The expression of CrRLK family RLKs by BL in WT and bes1-D mutant. Microarrays were performed with 2-week-old seedlings with or without BL treatment (1 uM, 3 hr). At5g38990 and At5g39000 have the same probe set in Affymetrix ATH1 Genome arrays, so only the former is shown. (9B) BR responses of the indicated mutants at the seedling stage, performed as described. (9C) Plant phenotypes of 24-day-old adult plants. The bar represents 10 mm. (9D) Petiole lengths of the sixth leaf in WT and mutants. Averages and standard deviations from 10 plants are shown. (E) A model for HERK signaling and its crosstalk with BR pathway.
BRs function to regulate cell elongation and many other processes^10-13. BRs signal through a membrane-localized receptor kinase BRI1 and other signaling components^10, 14-16 to control BES1 and BZR1 family transcription factors, which mediate the expression of many genes for BR responses^17-20. […] To further confirm that these RLK genes are modulated by BRs and/or BES1, we performed a microarray experiment with bes-D mutant^19, a constitutive BR response mutant due to highly accumulated BES1 protein, with En-2 as wild-type control (L.L. & Y.Y. in preparation). The expression of all CrRLK1L members is examined (FIG. 5A).

CrRLK family members = conditions: 10 nM BL for 3 hr; cited from earlier work
[3] = adult plants, microarray, adjusted p-value <=0.01

Compound: CC(C)[C@H](C)[C@@H](O)[C@H](O)[C@@H](C)[C@H]1CC[C@H]2[C@@H]3COC(=O)[C@H]4C[C@H](O)[C@H](O)C[C@]4(C)[C@H]3CC[C@]12C [BL, brassinolide]
- up-regulation of HERK1, THE1 and FER expression (HERK1, THE1 and FER; seedlings and/or adult plants, relative to UBQ5, p<0.01): 20-80%
- gene expression level At3g45960 (EXPL3) ([1]; WT + BL, WT-BL 24): 92
- gene expression level AT1G10550 (XTH33) ([1]; WT + BL, WT-BL 47): 223
- gene expression level At1g65310 (XTH17) ([1]; WT + BL, WT-BL 137): 214
- gene expression level At1g20190 (EXP11) ([1]; WT + BL, WT-BL 141): 395
- gene expression level At4g30290 (XTH19) ([1]; WT + BL, WT-BL 153): 297
- gene expression level At4g38400 (EXPL2) ([1]; WT + BL, WT-BL 188): 433
- gene expression level At2g20750 (EXPB1) ([1]; WT + BL, WT-BL 295): 198
- gene expression level At2g37640 (EXP3) ([1]; WT + BL, WT-BL 384): 641
- gene expression level At3g07010 (PLL20) ([1]; WT + BL, WT-BL 427): 939
- gene expression level AT1G11545 (XTH8) ([1]; WT + BL, WT-BL 453): 1178
- gene expression level At3g23730 (XTH16) ([1]; WT + BL, WT-BL 559): 819
- gene expression level At3g45970 (EXPL1) ([1]; WT + BL, WT-BL 581): 1339
- gene expression level At2g40610 (EXP8) ([1]; WT + BL, WT-BL 1006): 2407
- gene expression level AT5G57560 (XTH22) ([1]; WT + BL, WT-BL 2277): 7344
- gene expression level At3g29030 (EXP5) ([1]; WT + BL, WT-BL 2323): 2112
- gene expression level At1g04680 (PLL26) ([1]; WT + BL, WT-BL 2466): 3402
- gene expression level At4g37800 (XTH7) ([1]; WT + BL, WT-BL 2899): 3419
- gene expression level At2g28950 (EXP6) ([1]; WT + BL, WT-BL 3287): 2524
- gene expression level At1g69530 (EXP1) ([1]; WT + BL, WT-BL 6798): 8465
- gene expression level At2g06850 (XTH4) ([1]; WT + BL, WT-BL 7247): 13455
- number of genes whose expression BL induces [1, 3]: 650
- number of genes whose expression BL represses [1, 3]: 520
- gene expression level At3g45960 (EXPL3) ([2]; herk1 the1-BL 18): 44
- gene expression level At1g20190 (EXP11) ([2]; herk1 the1-BL 35): 225
- gene expression level AT1G10550 (XTH33) ([2]; herk1 the1-BL 48): 191
- gene expression level At1g65310 (XTH17) ([2]; herk1 the1-BL 95): 302
- gene expression level At4g38400 (EXPL2) ([2]; herk1 the1-BL 151): 381
- gene expression level At2g20750 (EXPB1) ([2]; herk1 the1-BL 161): 157
- gene expression level At4g30290 (XTH19) ([2]; herk1 the1-BL 162): 259
- gene expression level At3g07010 (PLL20) ([2]; herk1 the1-BL 325): 829
- gene expression level At2g37640 (EXP3) ([2]; herk1 the1-BL 340): 594
- gene expression level AT1G11545 (XTH8) ([2]; herk1 the1-BL 357): 1249
- gene expression level At2g40610 (EXP8) ([2]; herk1 the1-BL 437): 1586
- gene expression level At3g45970 (EXPL1) ([2]; herk1 the1-BL 529): 970
- gene expression level At3g23730 (XTH16) ([2]; herk1 the1-BL 636): 1069
- gene expression level At3g29030 (EXP5) ([2]; herk1 the1-BL 1523): 1848
- gene expression level At4g37800 (XTH7) ([2]; herk1 the1-BL 1831): 2864
- gene expression level At1g04680 (PLL26) ([2]; herk1 the1-BL 1982): 2932
- gene expression level At2g28950 (EXP6) ([2]; herk1 the1-BL 2074): 1919
- gene expression level AT5G57560 (XTH22) ([2]; herk1 the1-BL 2728): 7941
- gene expression level At1g69530 (EXP1) ([2]; herk1 the1-BL 3595): 6462
- gene expression level At2g06850 (XTH4) ([2]; herk1 the1-BL 5096): 11194
- regulation of FER, THE1, HERK1, At1g30570 (HERK2), At2g39360 and At5g24010 (CrRLK1L family RLKs): slightly upregulated
- induction of HERK1, THE1 and FER among CrRLK family members (CrRLK family members): most highly induced
- regulation of At2g39360, At5g24010, At1g30570, At5g38990/At5g39000 and At5g39020 (CrRLK family members): slightly induced

Compound: C=C1C[C@]23C[C@@]1(O)CC[C@H]2[C@@]12C=C[C@H](O)[C@@](C)(C(=O)O1)[C@H]2[C@@H]3C(=O)O [GA3]
- regulation of expression of HERK1, THE1, and FER (HERK1, THE1 and FER; 10-day-old seedlings, qRT-PCR): up-regulates

Compound: O=C(O)Cc1c[nH]c2ccccc12 [IAA]
- regulation of expression of HERK1 (HERK1, THE1 and FER; 10-day-old seedlings, qRT-PCR): appears to induce
